In the test the target is T1, Type-2 angiotensin II receptor (Homo sapiens, UniProt P50052).
T1 sequence (P50052 whole entry): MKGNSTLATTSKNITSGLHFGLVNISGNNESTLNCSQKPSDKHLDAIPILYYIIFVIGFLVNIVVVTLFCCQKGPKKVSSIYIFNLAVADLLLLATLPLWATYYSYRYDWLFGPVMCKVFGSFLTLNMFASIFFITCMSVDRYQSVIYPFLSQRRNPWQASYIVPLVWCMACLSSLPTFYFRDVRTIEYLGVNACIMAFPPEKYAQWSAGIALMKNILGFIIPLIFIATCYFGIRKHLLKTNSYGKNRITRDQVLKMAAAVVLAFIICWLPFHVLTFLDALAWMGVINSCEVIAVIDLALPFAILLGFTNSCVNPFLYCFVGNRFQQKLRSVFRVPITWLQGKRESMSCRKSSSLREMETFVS
Kind of test: AT2 Receptor Binding Assay: 120 μL membrane ([…]) was incubated with 15 μL of [125I]-CGP42112A and 15 μL of compound at RT for 1.5 hrs.The binding reaction was stopped by rapid filtration through Unifilter GF/C plates (presoaked in 0.3% (v:v) BSA).Plate was washed three times with ice cold wash buffer.The filtration plates were dried at 37° C. overnight.50 μL of scintillation cocktail was added to each well.Radioactivity was determined using MicroBetaTriltuunicroplate scintillation counter.

The structures appear in SMILES notation.

`O=C(O)[C@@H]1CN(CC#Cc2ccc(F)cc2)CCN1C(=O)C(c1ccccc1)c1ccccc1`: the IC50 came out at 3.92 µM.

(Values after ChEMBL document CHEMBL5725503, “Heterocyclic compounds and methods for their use” (2017).)
